Legend:
VEGF = assay: Effects of CQ and TPEN on the expression of VEGF, a HIF-1α target gene (RT-PCR); type: cell-based, human; conditions: TPEN 5 μM
Text: ID. […] ID. NO: 2 (5′-[…]-3′). […] ID. […] ID. NO: 4 (5′-[…]-3′).

[1] = test system: HRE (hypoxia-response element); assay: HRE dependent gene expression in HepG2 hepatoma cells (luciferase reporter gene assay); type: cell-based, human; conditions: p(HRE)4-luc, TPEN 5, 10 μM, CQ 10, 50 μM, 16 hours
Description: Human HepG2 hepatoma cells were grown to the density of 5×10^4 and then transfected with 100 ng of HRE-driven reporter plasmid, p(HRE)4-luc together with plasmid pCHO110 which encodes β-galactosidase. The transfected human HepG2 hepatoma cells were cultured under normoxic condition and hypoxic condition and then treated with TPEN (5, 10 μM) and CQ (10, 50 μM) for 16 hours each. 48 hours after the transfection, luciferase activities were analyzed using the reporter gene assay system (Promega, USA) and normalized by β-galactosidase activities.

human PHD2 = biological target: T1, human PHD2 (Homo sapiens, UniProt Q9GZT9); assay: PHD2 activity, in vitro VHL pull down assay; type: biochemical; conditions: capture of [35S]-labeled VHL by GST-ODD of human HIF-1α
T1 construct: histidine tag; made in house; host or cells: E. coli
Description: The present inventors investigated the effect of CQ on the activity of PHD2. Human PHD2 gene (AJ310543) was cloned into pET21b His2(+) vector and then the human PHD2 was expressed with a histidine tag in E. coli and purified by Ni-affinity chromatography (Choi, K. O. et al., Mol. Pharrmacol. 68, 1803-1809, 2005). The in vitro VHL pull down assay was performed as described by Haakkola et al (Haakkola, P. et al., Science 292,468-472, 2001). Particularly, [^35S]-methionine-labeled VHL protein was synthesized by in vitro transcription and translation using the pcDNA3.1/myc-hygro-VHL plasmid (Promega, Cat# L1170, USA), according to the instruction manual (Promega, Cat# L1170). GST-ODD (amino acids 401-603 of human HIF-1α) was expressed in E. coli and purified with glutathione-uniflow resin according to the instruction manual (BD Bioscience Clontech, Cat# 8912-1, USA). […] After agitation at 4° C. for 2 hours, the resin was washed three times with 1 ml of NETN buffer, and proteins were eluted in 3×SDS sample buffer, fractionated by 12% SDS-PAGE, and detected by autoradiography. The amount of each sample loaded was monitored by staining the GST-ODD with Coomassie blue.

GAL4-HIF-1α = assay: HIF-1α transactivation, Gal4-driven reporter gene assay in HepG2 cells; type: cell-based, human; conditions: TPEN 5 μM, 16 hours
Description: Human HepG2 hepatoma cells were cultured at the concentration of 5×10^4, which were transfected with 100 ng of Gal-4-driven reporter plasmid encoding the firefly luciferase gene under the control of the Gal4 binding site together with pGal4/HIF-1α plasmid which expresses HIF-1α linked to the DNA binding domain of the yeast Gal4 protein (amino acids 1-147). The transfected human HepG2 hepatoma cells were incubated in both normoxic and hypoxic conditions and then treated with CQ (10, 50 μM) for 16 hours in normoxic condition. 48 hours after the transfection, luciferase activities were analyzed using the reporter gene assay system (Promega, USA) and normalized by β-galactosidase activities.

HIF-1α and CBP = biological target: T2, HIF-1α and CBP (UniProt P45481+Q16665); assay: In vitro interaction between HIF-1α and CBP; type: binding, human; conditions: [35S]-labeled HIF-1α, bead-bound GST-CBP N-domain, with or without ZnCl2 20 μM
T2 construct: GST-CBP N-domain (amino acids 1-450); made in house
Description: Glutathione-uniflow resin bound protein was washed four times with 1 ml of 0.1% Nonidet P-40 containing binding buffer, eluted by heating in SDS sample buffer, and fractionated by SDS-PAGE (Dann et al., Proc Natl Acad Sci USA 99:15351-15356, 2002).

FIH-1 = FIH-1 (Homo sapiens, UniProt Q9NWT6); assay: In vitro FIH-1 activity (capture of radio-labeled HIF-1α by GST-CBP); type: biochemical; set-up: histidine tag; made in house; host or cells: E. coli; conditions: CQ 10 μM and 50 μM; interaction between HIF-1α and CBP as readout
Description: The human FIH-1 gene (AF395830) was cloned into pET28a vector (Novagen, USA) and FIH-1 was overexpressed in E. coli as a histidine-tagged fusion protein and purified by Ni-affinity chromatography. The fusion protein was purified by gel-filtration chromatography (Hi-Load Superdex 200) and concentrated by ultrafiltration (Choi et al., Mol Pharmacol 68:1803-1809, 2005).
The resin-bound GST-CBP N-domain (amino acids 1-450) (Kamei et al., Cell 85:403-414, 1996) was then added to 1 μg of each mixture in 500 μl of binding buffer (200 mM Tris-HCl (pH 8.0), 150 mM NaCl, 20 μM ZnCl2, 0.5 mM DTT) and incubation continued for one hour at 4° C. Glutathione-uniflow resin bound protein was washed four times with 1 ml of 0.1% Nondiet P-40 containing binding buffer, and visualized by SDS-PAGE by eluting using SDS sample buffer (Dann et al., Proc Natl Acad Sci USA 99:15351-15356, 2002). The present inventors substituted the asparagine-803 residue of HIF-1α with alanine to generate HIF-1α mutant [HIF-1α-C(N803A)], followed by investigation on FIH-1 activity by the same manner as described above.
Radio-labeled HIF-1α was reacted with the purified recombinant FIH-1, in the presence or absence of CQ or TPEN. FIH-1 was expected to […] the asparagine-803 residue of HIF-1α and thus inhibit the interaction with CBP binding to HIF-1α transactivation domain (Mahon, P. C. et al., Genes Dev. 15, 2675-2686, 2001; Dannm C. E. R., et al., Proc. Natl. Acad. Sci. USA 99, 15351-15356, 2002; Lando, D., et al., Science 295, 858-861, 2002; Freedman, S. J. et al., Proc. Natl. Acad. Sci. USA 99, 5367-5372, 2002).

T2 sequence (P45481 1-450 limits assumed, one chain of several): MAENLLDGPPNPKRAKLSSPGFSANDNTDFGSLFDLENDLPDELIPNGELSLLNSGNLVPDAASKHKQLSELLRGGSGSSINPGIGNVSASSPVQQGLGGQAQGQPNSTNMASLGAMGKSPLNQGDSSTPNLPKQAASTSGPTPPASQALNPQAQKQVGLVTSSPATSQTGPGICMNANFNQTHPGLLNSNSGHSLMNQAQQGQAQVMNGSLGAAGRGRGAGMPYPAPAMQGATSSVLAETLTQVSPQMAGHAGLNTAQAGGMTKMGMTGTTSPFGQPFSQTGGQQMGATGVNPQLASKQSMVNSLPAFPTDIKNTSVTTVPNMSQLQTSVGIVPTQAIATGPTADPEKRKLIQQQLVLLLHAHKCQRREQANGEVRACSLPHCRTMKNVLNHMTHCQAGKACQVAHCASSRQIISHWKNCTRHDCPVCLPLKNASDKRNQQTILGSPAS
Chain of FIH-1 (Q9NWT6 whole entry, the tested form may be a part): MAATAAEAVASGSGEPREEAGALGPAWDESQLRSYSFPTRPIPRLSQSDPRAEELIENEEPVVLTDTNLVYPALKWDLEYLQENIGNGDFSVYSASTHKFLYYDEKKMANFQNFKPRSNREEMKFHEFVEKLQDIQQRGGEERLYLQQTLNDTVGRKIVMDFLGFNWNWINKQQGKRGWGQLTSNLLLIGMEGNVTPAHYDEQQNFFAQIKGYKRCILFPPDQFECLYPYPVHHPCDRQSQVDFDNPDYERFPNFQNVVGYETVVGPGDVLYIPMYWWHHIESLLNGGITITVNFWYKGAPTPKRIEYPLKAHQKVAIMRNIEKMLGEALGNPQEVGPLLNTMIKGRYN
T1 sequence (Q9GZT9 whole entry): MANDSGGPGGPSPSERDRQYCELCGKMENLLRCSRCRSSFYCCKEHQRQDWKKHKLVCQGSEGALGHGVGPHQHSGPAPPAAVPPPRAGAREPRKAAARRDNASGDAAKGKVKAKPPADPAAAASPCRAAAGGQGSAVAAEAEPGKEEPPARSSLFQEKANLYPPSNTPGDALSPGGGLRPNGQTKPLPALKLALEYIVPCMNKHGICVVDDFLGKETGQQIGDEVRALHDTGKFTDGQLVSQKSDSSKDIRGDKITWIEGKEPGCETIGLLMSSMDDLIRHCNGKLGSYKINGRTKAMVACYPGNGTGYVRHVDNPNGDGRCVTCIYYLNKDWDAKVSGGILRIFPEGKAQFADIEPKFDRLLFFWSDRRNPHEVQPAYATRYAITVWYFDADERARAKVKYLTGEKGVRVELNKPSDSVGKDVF

c1ccc(CN(CCN(Cc2ccccn2)Cc2ccccn2)Cc2ccccn2)nc1 [TPEN, tetrakis-(2-pyridylmethyl)ethanediamine]
VEGF expression (VEGF; HepG2 cells, normoxic, CQ 10, 100 μM): differed in their effects on VEGF expression | VEGF expression (VEGF; SH-SY5Y cells, normoxic condition, CQ 10, 100 μM): reduced VEGF expression | VEGF expression (VEGF; hypoxic condition, 16 hours, CQ 100 μM, SH-SY5Y and HepG2 cells): none of the control, TPEN and CQ increased VEGF expression | HIF-1α dependent hypoxia-response element (HRE) activity [1]: but not TPEN induced HIF-1α dependent hypoxia-response element (HRE) activity | activity of PHD2 (human PHD2): increased the activity of PHD2 | transactivation activity of HIF-1α (GAL4-HIF-1α; hypoxic condition): increased HIF-1α activity | transactivation activity of HIF-1α (GAL4-HIF-1α; normoxic condition, CQ 10, 50 μM): not in normoxic condition | direct effect on the interaction between CBP and HIF-1α (HIF-1α and CBP): neither CQ nor TPEN directly affected the interaction between CBP and HIF-1α | FIH-1 activity (FIH-1): did not reduce FIH-1 activity
